This is an account of results in patent US11976072B2, “Diacylglycerol kinase modulating compounds” (priority 2021, dated 2024).

The target in one assay is human DGKα (Homo sapiens, UniProt P23743). Briefly: DGKα Biochemical Activity Assay (ADP-Glo).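 Also: luminescent detection of ADP produced as DGKα phosphorylates DAG to phosphatidic acid, IC50 from four-parameter nonlinear curve fit.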 The conditions noted are these: recombinant DGKα 1 nM, 100 μM ATP, 18:1 DAG/POPS/octylglucoside micelles, 1 hour at 25° C.; geometric mean; read-out: HTBS DGKa 1X ATP KM IC50.
The subject of assay [1] is Jurkat NFκB-luciferase cells. Briefly: Jurkat NFκB-Luciferase Assay. The class given is cell-based. The conditions noted are these: Homo sapiens. In a few lines:
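Jurkat NFκB-luciferase reporter cells at 1 million cells/ml in RPMI with 10% FBS were added to antibody-coated, compound-containing wells. Luciferase activity read by One-Glo Ex luminescence 7 minutes after reagent addition.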

[2] abbreviates: Jurkat NFκB-luciferase cells activated with anti-CD3 antibody (OKT3), 2.5 hrs at 37° C., geometric mean, read-out: DGK NFKb Luciferase EC50.

Read-outs that look alike come from different tables or passages of the source.

Chain of human DGKα (P23743 whole entry): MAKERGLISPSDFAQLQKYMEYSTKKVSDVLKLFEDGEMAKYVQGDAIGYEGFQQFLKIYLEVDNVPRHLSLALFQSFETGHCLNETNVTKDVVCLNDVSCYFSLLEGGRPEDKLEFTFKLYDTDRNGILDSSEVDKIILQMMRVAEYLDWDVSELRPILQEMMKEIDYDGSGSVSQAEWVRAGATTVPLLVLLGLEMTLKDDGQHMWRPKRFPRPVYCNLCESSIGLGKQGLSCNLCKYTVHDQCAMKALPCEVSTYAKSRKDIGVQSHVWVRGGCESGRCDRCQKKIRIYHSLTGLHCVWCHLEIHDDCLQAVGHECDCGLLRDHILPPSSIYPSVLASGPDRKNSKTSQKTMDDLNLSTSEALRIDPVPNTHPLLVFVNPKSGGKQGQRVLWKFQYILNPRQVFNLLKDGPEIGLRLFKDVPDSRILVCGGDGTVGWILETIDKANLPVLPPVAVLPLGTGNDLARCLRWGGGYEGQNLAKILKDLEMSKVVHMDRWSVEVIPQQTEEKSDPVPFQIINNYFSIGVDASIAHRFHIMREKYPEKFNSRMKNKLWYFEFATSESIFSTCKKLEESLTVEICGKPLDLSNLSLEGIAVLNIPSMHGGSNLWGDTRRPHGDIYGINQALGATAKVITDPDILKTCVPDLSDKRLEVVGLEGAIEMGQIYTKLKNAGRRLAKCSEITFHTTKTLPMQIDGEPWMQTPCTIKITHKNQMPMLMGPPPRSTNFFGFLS
Description for human DGKα: Alternatively, the enzymatic activity of human DGKα was monitored in a biochemical assay in the presence or absence of compounds and using micelles containing 18:1 Diacylglycerol (DAG), 16:0-18:1 PS (POPS) and Octylglucoside as substrate. DGKα activity led to conversion of DAG and ATP to Phosphatidic Acid (PA) and ADP. Levels of ADP were monitored by bioluminescence using the ADP-Glo Kinase Assay (Promega) and were indicative of DGKα activity.
Recombinant DGKα (Carna Biosciences) in assay buffer (5 μL in 50 mM MOPS [3-(N-morpholino) propanesulfonic acid], pH 7.2; 0.0025% Triton X-100; 1 mM dithiothreitol; 5 mM MgCl2, 200 μM ATP) was added to the compound-containing plate and was incubated for 15 minutes at 25° C. […] The reaction mixture was incubated at 25° C. for 1 hour. ADP-Glo Reagent (10 μL, 10 mM Mg added) provided by the kit was added to each well and incubated at 25° C. for 40 minutes. Then, 20 μL of Kinase Detection Reagent was added and incubated at 25° C. for 40 minutes. Luciferase activity of each well was measured via luminescence on an Envision plate reader (PerkinElmer).
Least squares curve fittings were performed using a four-parameter variable slope nonlinear regression model. […] IC50 values from multiple experiments were averaged by geometric mean and the standard deviation was calculated.

For orientation: IC50 means the concentration at which inhibition is half-maximal. Broadly, the EC50 is the midpoint of the concentration-response curve. As to `Cc1nnc2nc(N3CCN(C)Cc4c(C#CC(C)(C)C(F)(F)F)cccc43)c3cc(F)ccc3n12` [Example 171, 7-fluoro-1-methyl-5-[4-methyl-6-(4,4,4-trifluoro-3,3-dimethyl-but-1-ynyl)-3,5-dihydro-2H-1,4-benzodiazepin-1-yl]-[1,2,4]triazolo[4,3-a]quinazoline], on human DGKα, the IC50 came to 14.8 nM. In addition, the EC50 in assay [1] (setting [2]) came to 7.36 nM.
For `Cc1nnc2nc(N3CCN(C)Cc4c(C#CC5(C(F)(F)F)CC5)cccc43)c3cc(F)ccc3n12` [Example 172, 7-fluoro-1-methyl-5-[4-methyl-6-[2-[1-(trifluoromethyl)cyclopropyl]ethynyl]-3,5-dihydro-2H-1,4-benzodiazepin-1-yl]-[1,2,4]triazolo[4,3-a]quinazoline], the 50% inhibitory concentration (IC50) on human DGKα was found to be 8.77 nM. The EC50 in assay [1] (setting [2]) is 3.23 nM.
On the same counts, the results for `Cc1nnc2nc(N3CCCOc4c(C#CC5(C)CC5)cncc43)c3cc(F)ccc3n12` [Example 173, 5-(7-fluoro-1-methyl-[1,2,4]triazolo[4,3-a]quinazolin-5-yl)-9-[2-(1-methylcyclopropyl)ethynyl]-3,4-dihydro-2H-pyrido[4,3-b][1,4]oxazepine] are 17.2 nM and 2.03 nM.
Turning to `CC(C)(O)C#Cc1cccc2c1CCCN2c1nc2nncn2c2ccccc12` [Example 174, 2-methyl-4-[1-([1,2,4]triazolo[4,3-a]quinazolin-5-yl)-3,4-dihydro-2H-quinolin-5-yl]but-3-yn-2-ol], the half-inhibitory concentration (IC50) at human DGKα worked out at 26.7 nM. Besides, the concentration giving a half-maximal response (EC50) in assay [1] (Jurkat, […], read-out: DGK NFKb Luciferase EC50 (nM)) is 12 nM.
`FC(F)(F)C1(C#Cc2cccc3c2CCCN3c2nc3nncn3c3ccccc23)CC1` [Example 175, 5-[5-[2-[1-(trifluoromethyl)cyclopropyl]ethynyl]-3,4-dihydro-2H-quinolin-1-yl]-[1,2,4]triazolo[4,3-a]quinazoline]: the IC50 at human DGKα came to 110 nM. Moreover, in assay [1] (setting [2]), the concentration giving a half-maximal response (EC50) is 1.74 nM.
Consider `Cc1nnc2nc(N3CCCCc4c(C#CC(C)(C)NC(=O)C5(C(F)(F)F)CC5)cccc43)c3c(F)c(F)ccc3n12` [Example 176], for which the concentration for half-maximal inhibition (IC50) on human DGKα is 12.4 nM. For the same compound, in assay [1] (setting [2]), the EC50 is 6.67 nM.
`Cc1nnc2nc(N3CCCCc4c(C#CC5(NC(=O)C6(C(F)(F)F)CC6)CC5)cccc43)c3c(F)cccc3n12` [Example 177, N-(1-((1-(6-Fluoro-1-methyl-[1,2,4]triazolo[4,3-a]quinazolin-5-yl)-2,3,4,5-tetrahydro-1H-benzo[b]azepin-6-yl)ethynyl)cyclopropyl)-1-(trifluoromethyl)cyclopropane-1-carboxamide]: the IC50 at human DGKα was 6.74 nM. For the same compound, the EC50 in assay [1] (setting [2]) was determined as 23.4 nM.
As for `Cc1nnc2nc(N3CCOCc4c(C#CC(C)(C)NS(=O)(=O)C5(C(F)F)CC5)cccc43)c3c(F)cccc3n12` [Example 178, 1-(Difluoromethyl)-N-[3-[1-(6-fluoro-1-methyl-[1,2,4]triazolo[4,3-a]quinazolin-5-yl)-3,5-dihydro-2H-4,1-benzoxazepin-6-yl]-1,1-dimethyl-prop-2-ynyl]cyclopropanesulfonamide], the IC50 at human DGKα turned out to be 44.9 nM. Also, the half-maximal effective concentration (EC50) in assay [1] (setting [2]) came out at 10.2 nM.
For `Cc1nc(C#Cc2cccc3c2COCCN3c2nc3nnc(C)n3c3cccc(F)c23)co1` [Example 179, 1-(6-Fluoro-1-methyl-[1,2,4]triazolo[4,3-a]quinazolin-5-yl)-6-[2-(2-methyloxazol-4-yl)ethynyl]-3,5-dihydro-2H-4,1-benzoxazepine], the IC50 on human DGKα amounted to 9.59 nM. Moreover, the EC50 in assay [1] (setting [2]) is 9.13 nM.
Take `Cc1nnc2nc(N3CCOCc4c(C#CC(C)(C)NC(=O)C(C)(C)C(C)(F)F)cccc43)c3c(F)cccc3n12` [Example 180, 3,3-Difluoro-N-[3-[1-(6-fluoro-1-methyl-[1,2,4]triazolo[4,3-a]quinazolin-5-yl)-3,5-dihydro-2H-4,1-benzoxazepin-6-yl]-1,1-dimethyl-prop-2-ynyl]-2,2-dimethyl-butanamide]: on human DGKα, the concentration for half-maximal inhibition (IC50) worked out at 5.12 nM. For the same compound, the 50% effective concentration (EC50) in assay [1] (setting [2]) came to 13.5 nM.
Regarding `Cc1nnc2nc(N3CCOCc4c(C#CC(C)(C)NC(=O)C5(C(C)(F)F)CC5)cccc43)c3c(F)cccc3n12` [Example 181, 1-(1,1-Difluoroethyl)-N-[3-[1-(6-fluoro-1-methyl-[1,2,4]triazolo[4,3-a]quinazolin-5-yl)-3,5-dihydro-2H-4,1-benzoxazepin-6-yl]-1,1-dimethyl-prop-2-ynyl]cyclopropanecarboxamide], at human DGKα, the concentration for half-maximal inhibition (IC50) was 4.06 nM. Moreover, in assay [1] (setting [2]), the concentration for a half-maximal effect (EC50) came to 12.4 nM.
As to `Cc1nnc2nc(N3CCOCc4c(C#CC(C)(C)NC(=O)C5(C(F)(F)F)CC5)cccc43)c3c(F)c(F)ccc3n12` [Example 182, N-[3-[1-(6,7-Difluoro-1-methyl-[1,2,4]triazolo[4,3-a]quinazolin-5-yl)-3,5-dihydro-2H-4,1-benzoxazepin-6-yl]-1,1-dimethyl-prop-2-ynyl]-1-(trifluoromethyl)cyclopropanecarboxamide], at human DGKα, the IC50 turned out to be 2.41 nM. Moreover, the EC50 in assay [1] (setting [2]) is 4.27 nM.
`Cc1nnc2nc(N3CCCCc4c(C#CC(C)(C)NC(=O)C5(C(F)(F)F)CC5)cccc43)c3c(F)cccc3n12` [Example 183, N-(4-(1-(6-fluoro-1-methyl-[1,2,4]triazolo[4,3-a]quinazolin-5-yl)-2,3,4,5-tetrahydro-1H-benzo[b]azepin-6-yl)-2-methylbut-3-yn-2-yl)-1-(trifluoromethyl)cyclopropane-1-carboxamide]: the IC50 at human DGKα was determined as 28.4 nM. In assay [1] (setting [2]), the EC50 is 11.8 nM.
As to `Cc1nnc2nc(N3CCOCc4c(C#CC(C)(C)C(C)(F)F)cccc43)c3c(F)c(F)ccc3n12` [Example 184, 6-(4,4-Difluoro-3,3-dimethyl-pent-1-ynyl)-1-(6,7-difluoro-1-methyl-[1,2,4]triazolo[4,3-a]quinazolin-5-yl)-3,5-dihydro-2H-4,1-benzoxazepine], the IC50 on human DGKα was determined as 7.51 nM. Moreover, the EC50 in assay [1] (setting [2]) is 0.787 nM.
In the case of `Cc1nnc2nc(N3CCCCc4c(C#CC5(C)COC5)cccc43)c3c(F)c(F)ccc3n12` [Example 185, 6,7-Difluoro-1-methyl-5-[6-[2-(3-methyloxetan-3-yl)ethynyl]-2,3,4,5-tetrahydro-1-benzazepin-1-yl]-[1,2,4]triazolo[4,3-a]quinazoline], at human DGKα, the concentration for half-maximal inhibition (IC50) was found to be 4.58 nM. The EC50 in assay [1] (setting [2]) amounted to 1.09 nM.
Turning to `Cc1nnc2nc(N3CCCCc4c(C#CC(C)(C)C#N)cccc43)c3c(F)c(F)ccc3n12` [Example 186, 4-[1-(6,7-Difluoro-1-methyl-[1,2,4]triazolo[4,3-a]quinazolin-5-yl)-2,3,4,5-tetrahydro-1-benzazepin-6-yl]-2,2-dimethyl-but-3-ynenitrile], the IC50 at human DGKα came out at 6.51 nM. In addition, the EC50 in assay [1] (setting [2]) is 2.84 nM.
Take `Cc1nnc2nc(N3CCOCc4c(C#CC(C)(C)C(C)(F)F)cccc43)c3c(F)cccc3n12` [Example 187, 6-(4,4-Difluoro-3,3-dimethyl-pent-1-ynyl)-1-(6-fluoro-1-methyl-[1,2,4]triazolo[4,3-a]quinazolin-5-yl)-3,5-dihydro-2H-4,1-benzoxazepine]: the half-maximal inhibitory concentration (IC50) on human DGKα was 12.3 nM. Moreover, in assay [1] (setting [2]), the 50% effective concentration (EC50) came to 1.45 nM.
On to `Cc1nnc2nc(N3CCCCc4c(C#CC(C)(C)C#N)cccc43)c3c(F)cccc3n12` [Example 188, 4-[1-(6-Fluoro-1-methyl-[1,2,4]triazolo[4,3-a]quinazolin-5-yl)-2,3,4,5-tetrahydro-1-benzazepin-6-yl]-2,2-dimethyl-but-3-ynenitrile], for which the IC50 at human DGKα is 9.86 nM. The concentration for a half-maximal effect (EC50) in assay [1] (setting [2]) is 2.12 nM.
Regarding `Cc1nnc2nc(N3CCOCc4c(C#CC(C)(C)C#N)cccc43)c3c(F)cccc3n12` [Example 189, 4-[1-(6-Fluoro-1-methyl-[1,2,4]triazolo[4,3-a]quinazolin-5-yl)-3,5-dihydro-2H-4,1-benzoxazepin-6-yl]-2,2-dimethyl-but-3-ynenitrile], at human DGKα, the IC50 turned out to be 1.84 nM. In assay [1] (setting [2]), the concentration for a half-maximal effect (EC50) turned out to be 3.44 nM.
With `Cc1nnc2nc(N3CCOCc4c(C#CC(C)(C)C(F)F)cccc43)c3c(F)cccc3n12` [Example 190, 6-(4,4-Difluoro-3,3-dimethyl-but-1-ynyl)-1-(6-fluoro-1-methyl-[1,2,4]triazolo[4,3-a]quinazolin-5-yl)-3,5-dihydro-2H-4,1-benzoxazepine], the IC50 on human DGKα was 6.91 nM. Also, in assay [1] (setting [2]), the concentration giving a half-maximal response (EC50) came out at 1.46 nM.
On the same counts, the results for `Cc1nnc2nc(N3CCOCc4c(C#CC5(C(F)F)CC5)cccc43)c3c(F)cccc3n12` [Example 191, 6-[2-[1-(Difluoromethyl)cyclopropyl]ethynyl]-1-(6-fluoro-1-methyl-[1,2,4]triazolo[4,3-a]quinazolin-5-yl)-3,5-dihydro-2H-4,1-benzoxazepine] are 3.66 nM and 1.42 nM.
Regarding `Cc1nnc2nc(N3CCCCc4c(C#CC5(C(F)(F)F)CC5)cccc43)c3c(F)cccc3n12` [Example 192], on human DGKα, the half-inhibitory concentration (IC50) worked out at 54.9 nM. The EC50 in assay [1] (setting [2]) was 0.892 nM.
With `Cc1nnc2nc(N3CCCCc4c(C#CC5(C)COC5)cccc43)c3c(F)cccc3n12` [Example 193], the IC50 on human DGKα amounted to 2.85 nM. In assay [1] (setting [2]), the EC50 is 0.871 nM.
Regarding `Cc1nnc2nc(N3CCOCc4c(C#CC5(C)COC5)cccc43)c3c(F)cccc3n12` [Example 194, 1-(6-Fluoro-1-methyl-[1,2,4]triazolo[4,3-a]quinazolin-5-yl)-6-[2-(3-methyloxetan-3-yl)ethynyl]-3,5-dihydro-2H-4,1-benzoxazepine], the IC50 at human DGKα came out at 0.773 nM. In assay [1] (setting [2]), the EC50 came to 1.68 nM.
Taken in the same sequence, the figures for `CCC1(C#Cc2cccc3c2COCCN3c2nc3nnc(C)n3c3cccc(F)c23)CC1` [Example 195, 6-[2-(1-Ethylcyclopropyl)ethynyl]-1-(6-fluoro-1-methyl-[1,2,4]triazolo[4,3-a]quinazolin-5-yl)-3,5-dihydro-2H-4,1-benzoxazepine] were 13.3 nM and 0.382 nM.
